In data set [1] the target is T1, cytochrome P450 2C9 (CYP2C9) (Homo sapiens, UniProt P11712). Put plainly: biochemical.
Experimental: (§2) Tolbutamide hydroxylation activity (100 μM C-tolbutamide; 1 mM NADPH) was assayed in pooled human liver microsomes (0.6 mg protein/ml)) for 60 minutes at 37° C. both with and without test compounds.
The target in data set [2] is T1, cytochrome P450 2C9 (CYP2C9). Kind of data set: Inhibition of CYP2C9 tolbutamide hydroxylation activity in pooled human liver microsomes (Example 7).
Experimental: as §2
Data set [3] deals with Zucker fatty rats. Kind of data set: Short insulin tolerance test in Zucker fatty rats (Example 10). The settings on record: 50 mg/kg/day for 5 days. Type of data set: in vivo. As for the experimental part:
(§1) Prior to treatment, rats were assigned to 6 groups based on body weight. Each treatment group consisted of 8 rats. […] The gavage volume was 10 ml/kg. All rats received an oral glucose challenge (1.9 g/kg) 5.5 hours after the treatment and 4 hours after withdrawal of the food. Blood samples were taken at 0, 15, 30, 60, 90, 120, and 180 minutes following the glucose challenge for plasma glucose measurement. […] On day 5, rats received the intravenous insulin (0.75 U/kg) 5.5 hours after the last dose and 4 hours after withdrawal of the food. Blood samples were taken at 3, 6, 9, 12, 15 and 18 minutes following the insulin injection for plasma glucose measurement.

Data set [4] concerns diabetic ob/ob mice. Put plainly: Glucose and insulin lowering on daily oral administration for 5 days in ob/ob mice (Example 9).
Experimental: Animals were housed (4-5 mice/cage) under standard laboratory conditions at 22° C. and 50% relative humidity, and were maintained on a diet of Purina rodent chow and water ad libitum. Prior to treatment, blood was collected from the tail vein of each animal. Mice that had non-fasting plasma glucose levels between 300 and 520 mg/dL were used. Each treatment group consisted of 10 mice that were distributed so that the mean glucose levels were equivalent in each group as the start of the study. […] The gavage volume was 10 ml/kg. Blood samples were taken at 3, 6, 27, 30 and 120 hour after the first dose and analyzed for plasma glucose and insulin. The animals were fasted overnight (14 hours) before the 120 hours sampling. Plasma glucose concentrations were determined calorimetrically using glucose oxidase method (Sigma Chemical Co, St. Louis, Mo., USA). Plasma insulin concentrations were determined by using the Rat Insulin RIA Kit from Linco Research Inc. (St. Charles, Mo., USA). Significance difference between groups (comparing drug-treated to vehicle-treated) was evaluated using Student unpaired t-test.
For data set [5], the system named is Zucker fatty rats. Kind of data set: Oral glucose challenge in Zucker fatty rats (Example 10). Type of data set: in vivo. The settings on record: racemate 100 mg/kg, enantiomers 50 and 100 mg/kg; for incremental glucose area under the curve (AUC) vs control, in words: single oral dose. The method, then:
as §1

Data set [6] relates to Zucker Diabetic Fatty rats. Kind of data set: Lipid lowering activity in Zucker Diabetic Fatty rats (Example 11). Type of data set: in vivo. The settings on record: ZDF rats; for plasma cholesterol course during treatment, in words: 13 days, racemate 50 mg/kg/day, enantiomers 25 mg/kg/day. The method, then:
Male Zucker diabetic fatty (ZDF) rats were obtained from GMI Laboratories (Indianapolis, Ind.) at 9 weeks of age. Vehicle or enantiomers of halofenate administered by oral gavage on a daily basis starting at 74 days of age. Initial blood samples were obtained for analysis one day before treatment and at the indicated times in the treatment protocol. Blood was analyzed for plasma triglyceride and cholesterol by standard techniques.

In the next data set the test system is ZDF rats. Kind of data set: Plasma glucose in ZDF rats, (−) versus (+) halofenate (Example 13). Type of data set: in vivo. The settings on record: 50 mg/kg oral once a day for 3 days. The method, then: Male 8-9 week old ZDF rats were purchased from Genetic Models, Inc. (Indianapolis, Ind.). […] Rats that had 4-hour fasting plasma glucose levels between 200 and 500 mg/dL were used. […] The gavage volume was 5 ml/kg. Blood samples were taken at 5 hours post dose on day 2 and 3.

Data set [7] concerns oxonic acid induced hyperuricemic rats. Kind of data set: Plasma uric acid in oxonic acid induced hyperuricemic rats (Example 17). Type of data set: in vivo. Conditions: oxonic acid hyperuricemic SD rats, oral 50 mg/kg for 3 days, 100 mg/kg on day 4, 6 hours post gavage. The text has this:
Male SD rats, weight 275-300 g were purchased from Charles River. […] To establish a hyperuricemic state, animals were put on a diet containing 2.5% (w/w) of oxonic acid (Sigma Chemical Co, St. Louis, Mo., USA) throughout the experiment. Oxonic acid elevates plasma uric acid by inhibiting uricase. Rats were screened for plasma uric acid levels 3 days after they were placed on the diet, and those that had extreme plasma uric acid levels were excluded. Rats were assigned to one of three groups and the mean uric acid levels were equivalent in each group. […] Oxonic acid was delivered in a liquid formulation containing 0.9% (w/v) methylcellulose. The gavage and injection volumes were 5 ml/kg. Blood samples were taken at 6 hours post oral gavage on day 4. Plasma uric acid levels were determined colorimetrically using the Infinity Uric Acid Reagent (Sigma Chemical Co, St. Louis, Mo., USA).

For a further data set, the target named is CYP2C9 (Homo sapiens, UniProt P11712).
A further data set relates to patients with diabetes. Conditions: cited from earlier work.
Data set [8] relates to diabetic ob/ob mice. Kind of data set: Time course of glucose-lowering after a single oral dose in ob/ob mice (Example 8). Type of data set: in vivo. Conditions: single oral dose 250 mg/kg.
Data set [9] can be described thus: Pharmacokinetic study in SD rats, chiral HPLC of plasma halofenic acids (Example 14). The settings on record: single oral dose of (−) halofenate 50 mg/kg. Type of data set: in vivo. The method, then:
Male 225-250 g SD rats were purchased from Charles River. […] A catheter was placed in the left carotid artery under sodium pentobarbital (50 mg/kg i.p.) and animals were allowed to recover for 2 days before treatment. […] The gavage volume was 5 ml/kg. Blood samples were collected at 1, 2, 4, 6, 8, 12, 24, 48, 72, 96 and 120 hours post dose. The plasma samples were analyzed for each enantiomeric acid ((−) halofenic acid and (+) halofenic acid) by a chiral specific HPLC assay, since the esters are prodrugs, which are designed to convert to their respective enantiomeric acids in vivo.

Another data set addresses CYP2C19 (Homo sapiens, UniProt P33261). Put plainly: Cytochrome P450 isoform inhibition in human hepatic microsomes, S-mephenytoin (Example 18). Conditions: both sexes, human, pooled human hepatic microsomes, probe S-mephenytoin 50 μM; positive control 10 μM. Type of data set: in vitro ADME.
Data set [10] is described as follows: Plasma hydrolysis of (−) CPTA prodrug esters in human plasma (Example 21). Type of data set: in vitro ADME. The settings on record: human plasma (heparinized, pooled), 125 or 250 μM, 37° C., hydrolysis to (−) CPTA; read-out: Plasma T1/2 (converted). The method, then:
This example illustrates the plasma hydrolysis of various prodrug esters of the (S)-enantiomer of CPTA at physiological conditions. Hydrolysis was monitored and analyzed by HPLC. The hydrolytic product was identified by comparison to authentic (−) CPTA and the hydrolytic rates were calculated. [drawing 83]
Human plasma (heparinized, pooled) was obtained from Golden West Biololgicals Inc., USA; Plasma incubation was carried out in a Water Bath Shaker (New Brunswick Scientific, Inc.); Sample analyses were carried out on Agilent HPLC 1100 system.
Prepare 31.25 or 62.5 mM prodrug stock solutions in 100% DMSO. Add 4 μL of 31.25 or 62.5 mM prodrug stock solutions to 1.0 mL of plasma in a microcentrifuge tube to make plasma concentration at 125 or 250 μM, mix gently. Aliquots of 50 μL are transferred to 15 microcentrifuge vials. Three samples are immediately removed to a freezer at about −80° C. (0 time point), the remaining samples are incubated in a bath shaker at 37° C. Three samples are removed at 30 min, 2, 7 and 24 hr, and stored at −80° C. until analysis. The relative concentrations of MBX-compounds are determined by HPLC methods. If there are enough data points, the hydrolytic rate can be calculated using WinNonlin software. Table 10 provides a summary of plasma half-lives of some pro-drug esters and FIGS. 20A-20G illustrate the hydrolytic curves of those prodrug esters.

The mark [11] stands for this setting: 250 mg/kg/day oral, listed as (+) enantiomer, 250 mg/kg/day.

Several values for one entry are separate records, joined by “and”; a condition that tells them apart may be missing. Equal values may be shown once.

T1 sequence (P11712 whole entry): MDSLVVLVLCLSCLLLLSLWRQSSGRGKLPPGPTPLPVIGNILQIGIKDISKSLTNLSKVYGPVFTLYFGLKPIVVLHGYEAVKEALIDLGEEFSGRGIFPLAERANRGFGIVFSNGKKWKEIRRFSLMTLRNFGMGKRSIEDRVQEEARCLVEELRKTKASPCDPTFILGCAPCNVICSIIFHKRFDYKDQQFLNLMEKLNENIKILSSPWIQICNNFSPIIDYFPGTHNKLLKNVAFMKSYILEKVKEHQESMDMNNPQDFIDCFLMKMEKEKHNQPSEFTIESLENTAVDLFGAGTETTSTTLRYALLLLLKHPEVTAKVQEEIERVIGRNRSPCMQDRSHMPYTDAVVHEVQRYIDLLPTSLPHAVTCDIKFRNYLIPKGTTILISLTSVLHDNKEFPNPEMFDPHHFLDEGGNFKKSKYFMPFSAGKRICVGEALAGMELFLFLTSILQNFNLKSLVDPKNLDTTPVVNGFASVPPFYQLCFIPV
Sequence of CYP2C9 (P11712 whole entry): as above
Sequence of CYP2C19 (P33261 whole entry, canonical isoform): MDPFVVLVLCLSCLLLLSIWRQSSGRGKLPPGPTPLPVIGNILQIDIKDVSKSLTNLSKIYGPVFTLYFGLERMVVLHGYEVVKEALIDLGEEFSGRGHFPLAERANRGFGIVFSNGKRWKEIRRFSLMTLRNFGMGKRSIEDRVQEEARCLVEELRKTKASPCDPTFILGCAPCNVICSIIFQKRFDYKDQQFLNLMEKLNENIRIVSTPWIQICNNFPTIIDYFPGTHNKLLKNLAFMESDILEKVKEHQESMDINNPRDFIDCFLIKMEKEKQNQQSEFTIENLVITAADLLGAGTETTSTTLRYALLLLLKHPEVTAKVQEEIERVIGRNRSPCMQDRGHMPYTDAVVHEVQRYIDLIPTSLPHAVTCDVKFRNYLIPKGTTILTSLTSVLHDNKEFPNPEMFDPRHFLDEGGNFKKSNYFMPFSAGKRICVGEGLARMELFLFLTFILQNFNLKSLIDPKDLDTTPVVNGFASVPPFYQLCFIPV

The compound `O=C(O)C(Oc1cccc(C(F)(F)F)c1)c1ccc(Cl)cc1` (racemic) [racemic halofenic acid, 4-Chlorophenyl-(3-trifluoromethylphenoxy)-acetic Acid] returned a 50% inhibitory concentration (IC50) in data set [1] of 450 nM. Moreover, the “inhibition of cytochrome P450 2C9, in words” value in data set [2] is listed as “found to inhibit cytochrome P450 2C9”.

For the compound `CC(=O)NCCOC(=O)C(Oc1cccc(C(F)(F)F)c1)c1ccc(Cl)cc1` (single isomer, unassigned; (+)) [(+) halofenate, (+) 2-Acetamidoethyl 4-Chlorophenyl-(3-trifluoromethylphenoxy)-acetate, reference compound], in the data set with Zucker fatty rats [3], the “insulin sensitivity (slope of decline in glucose after i.v. insulin), in words” value is “small effect on insulin sensitivity that was not significantly different from the vehicle-treated control”. In addition, in the data set with diabetic ob/ob mice [4] (125 mg/kg/day oral, listed as (+) enantiomer, 125 mg/kg/day), the “overnight fasting plasma insulin after 5 days, in words” value was “did not lower plasma insulin”. Moreover, in the data set on diabetic ob/ob mice [4] (setting [11]), the “overnight fasting plasma insulin after 5 days, in words” value is “decrease in plasma insulin”; the “time points with reduced plasma insulin vs control” value was “greatest extent of reduced plasma insulin was noted at 27 and 30 hours”. Besides, the “incremental glucose area under the curve (AUC) vs control, in words” value with Zucker fatty rats [5] is “not statistically significant”. Moreover, the “lowering of plasma triglyceride vs control at 7 days, in words” value in data set [6] (37.5 mg/kg/day (High dose)) is reported as “significant lowering of plasma triglyceride”. For the same compound, the “days of treatment with significant plasma cholesterol decrease vs control” value in data set [6] (37.5 mg/kg/day (High dose), 37.5 mg/kg/day) is “after 7 days but not after 14 days”. The “plasma cholesterol course during treatment, in words” value in data set [6] is on record as “remained relatively constant”. In addition, in the data set on ZDF rats, the “plasma glucose compared to vehicle-treated animals, in words” value was “failed to reduce plasma glucose concentrations”. Moreover, the “plasma uric acid levels vs vehicle, in words” value in [7] was “lowered plasma uric acid levels, but it was not statistically significant”.

In the case of `Nc1ccc(S(=O)(=O)Nc2ccnn2-c2ccccc2)cc1` [SFZ, sulfaphenazole, reference compound], on CYP2C9, the “Tolbutamide 4-OH TB Production” value is “BQL”.

As to `CC(=O)NCCOC(=O)C(Oc1cccc(C(F)(F)F)c1)c1ccc(Cl)cc1` (racemic) [racemic halofenate, 2-acetamidoethyl (4-chlorophenyl) (3-trifluoromethylphenoxy) acetate, reference compound], the side effects noted entry with patients with diabetes (previous studies) was “gastrointestinal bleeding from stomach and peptic ulcers”. In addition, in the data set with patients with diabetes (treated with racemic halofenate alone), the “effect on glucose in patients with diabetes” value was “minimal effect on glucose”. The “time points with significant plasma glucose reduction vs control” value with diabetic ob/ob mice [4] (250 mg/kg/day oral) is given as “Significant decreases in glucose levels”. The “time points with reduced plasma insulin vs control” value with diabetic ob/ob mice [4] (250 mg/kg/day oral, listed as racemate, 250 mg/kg/day) is recorded as “insulins were lower”. Besides, the “plasma glucose after oral glucose challenge, in words” value in the data set with Zucker fatty rats [5] (single oral dose 5.5 hours before challenge) is “plasma glucose was reduced”. Further, in the data set on Zucker fatty rats [5], the “incremental glucose area under the curve (AUC) vs control, in words” value is listed as “not statistically significant”. The “plasma cholesterol course during treatment, in words” value in [6] is given as “plasma cholesterol declined with treatment”. In the data set on diabetic ob/ob mice [8], the “time of peak glucose-lowering activity” value was 9 h and the “time points with significant (p<0.05) decrease in glucose compared to control” value was “most of the timepoints”.

Consider `O=C(O)C(Oc1cccc(C(F)(F)F)c1)c1ccc(Cl)cc1` (single isomer, unassigned; (+)) [(+) halofenic acid, (+) 4-chlorophenyl-(3-trifluoromethylphenoxy)-acetic acid, reference compound], for which, in [1], the midpoint of inhibition, the IC50, lay at 220 nM. In addition, the “inhibition of cytochrome P450 2C9, in words” value in [2] is recorded as “quite potent”. Moreover, in data set [9] (individual rats 8, 9, 11), the “plasma concentration at 0 hour” value was “BQL (BQL = Below Quantifiable Limit < 1.00 μg/mL)”; the “plasma concentration at 1 hour” value is 1.12 μg/mL and BQL (BQL = Below Quantifiable Limit < 1.00 μg/mL) (2×); the “plasma concentration at 2 hours” value is 1.27 μg/mL and BQL (BQL = Below Quantifiable Limit < 1.00 μg/mL) and 1.09 μg/mL; the “plasma concentration at 4 hours” value was 1.67 μg/mL and BQL (BQL = Below Quantifiable Limit < 1.00 μg/mL) and 1.95 μg/mL. In addition, in data set [9] (individual rats 8, 9, 11), the “plasma concentration at 6 hours” value is 2.96 μg/mL and BQL (BQL = Below Quantifiable Limit < 1.00 μg/mL) and 1.73 μg/mL; the “plasma concentration at 8 hours” value is 2.58 μg/mL and BQL (BQL = Below Quantifiable Limit < 1.00 μg/mL) and 2.06 μg/mL; the “plasma concentration at 12 hours” value is 2850 ng/mL and 2230 ng/mL and 2080 ng/mL; the “plasma concentration at 24 hours” value was 2220 ng/mL and 1290 ng/mL and 1860 ng/mL. Besides, in [9] (individual rats 8, 9, 11), the “plasma concentration at 48 hours” value is 1640 ng/mL and 1030 ng/mL and 1140 ng/mL; the “plasma concentration at 72 hours” value was 1.25 μg/mL and BQL (BQL = Below Quantifiable Limit < 1.00 μg/mL) (2×). Further, the “plasma concentration at 96 hours” value in data set [9] (individual rats 8, 11) is given as “BQL (BQL = Below Quantifiable Limit < 1.00 μg/mL)”. Also, the “plasma concentration at 120 hours” value in data set [9] (rat 8) was “BQL (BQL = Below Quantifiable Limit < 1.00 μg/mL)”.

In the case of `COc1ccc2[nH]c([S+]([O-])Cc3ncc(C)c(OC)c3C)nc2c1` (centres unmarked) [OMP, omeprazole, reference compound], the inhibition at 30 min, 10 μM against CYP2C19 was found to be 50%.

In the case of `CCNC(=O)NCCOC(=O)C(Oc1cccc(C(F)(F)F)c1)c1ccc(Cl)cc1` (single isomer, unassigned) [Compound 19.22], in data set [10], the half-life was under 1 h.

By IC50 is commonly meant the point on the concentration scale where inhibition reaches its midpoint. Low readings indicate greater potency, high ones weaker potency. In general, inhibition refers to the percentage by which the read-out fell short of the control. Lower therefore signals a response near the control.

The values are drawn from patent publication US20040039053A1, “Use of(-) (3-halomethylphenoxy) (4-halophenyl) acetic acid derivatives for treatment of insulin resistance, type 2 diabetes, hyperlipidemia and hyperuricemia” (priority 2000, published 2004).
